# Results as given in ChEMBL document CHEMBL3045892, “Synthesis and evaluation of in vitro antimicrobial activity of novel 2,3-disubstituted-4-thiazolidinones from fatty acid hydrazides” (2013).
# System: Aspergillus fumigatus
# Assay: Antifungal activity against Aspergillus fumigatus by disk diffusion method
# Assay type: functional
# Details: not given
row,SMILES,diameter of the inhibition zone (DIZ) [mm]
1,C=CCCCCCCCCC(=O)NN1C(=O)CSC1c1ccc(Cl)cc1 (centres undefined),22.2

# System: Escherichia coli
# Assay: Antibacterial activity against Escherichia coli ATCC 25922 after 24 hr by disk diffusion method
# Assay type: functional
# Details: not given
row,SMILES,diameter of the inhibition zone (DIZ) [mm]
1,C=CCCCCCCCCC(=O)NN1C(=O)CSC1c1ccc(Cl)cc1 (centres undefined),19.8

# System: Pseudomonas aeruginosa
# Assay: Antibacterial activity against Pseudomonas aeruginosa ATCC 27853 at 30 ug/disk after 24 hr by disk diffusion method
# Assay type: functional
# Details: ATCC 27853, 24 h, read-out: DIZ
row,SMILES,zone of inhibition at 30 µg/disc [mm]
1,O=C(N[C@H](CO)[C@H](O)c1ccc([N+](=O)[O-])cc1)C(Cl)Cl [CHLORAMPHENICOL],32

# System: Klebsiella pneumoniae
# Assay: Antibacterial activity against Klebsiella pneumoniae clinical isolate after 24 hr by broth dilution method
# Assay type: functional
# Details: not given
row,SMILES,MIC [µg/mL]
1,O=C(N[C@H](CO)[C@H](O)c1ccc([N+](=O)[O-])cc1)C(Cl)Cl [CHLORAMPHENICOL],6.25
2,C=CCCCCCCCCC(=O)NN1C(=O)CSC1c1ccc(Cl)cc1 (centres undefined),25

# System: Klebsiella pneumoniae
# Assay: Antibacterial activity against Klebsiella pneumoniae clinical isolate after 24 hr by disk diffusion method
# Assay type: functional
# Details: not given
row,SMILES,diameter of the inhibition zone (DIZ) [mm]
1,C=CCCCCCCCCC(=O)NN1C(=O)CSC1c1ccc(Cl)cc1 (centres undefined),18.3

# System: Staphylococcus aureus
# Assay: Antibacterial activity against methicillin-resistant Staphylococcus aureus at 30 ug/disk after 24 hr by disk diffusion method
# Assay type: functional
# Details: read-out: DIZ
row,SMILES,zone of inhibition at 30 µg/disc [mm]
1,O=C(N[C@H](CO)[C@H](O)c1ccc([N+](=O)[O-])cc1)C(Cl)Cl [CHLORAMPHENICOL],22

# System: Streptococcus pyogenes
# Assay: Antibacterial activity against Streptococcus pyogenes at 30 ug/disk after 24 hr by disk diffusion method
# Assay type: functional
# Details: read-out: DIZ
row,SMILES,zone of inhibition at 30 µg/disc [mm]
1,O=C(N[C@H](CO)[C@H](O)c1ccc([N+](=O)[O-])cc1)C(Cl)Cl [CHLORAMPHENICOL],23

# System: Escherichia coli
# Assay: Antibacterial activity against Escherichia coli ATCC 25922 incubated for 24 hr followed by subculturing measured after 18 to 24 hr
# Assay type: functional
# Details: not given
row,SMILES,MBC [µg/mL]
1,O=C(N[C@H](CO)[C@H](O)c1ccc([N+](=O)[O-])cc1)C(Cl)Cl [CHLORAMPHENICOL],12.5
2,C=CCCCCCCCCC(=O)NN1C(=O)CSC1c1ccc(Cl)cc1 (centres undefined),50

# System: Staphylococcus aureus
# Assay: Antibacterial activity against methicillin-resistant Staphylococcus aureus incubated for 24 hr followed by subculturing measured after 18 to 24 hr
# Assay type: functional
# Details: not given
row,SMILES,MBC [µg/mL]
1,O=C(N[C@H](CO)[C@H](O)c1ccc([N+](=O)[O-])cc1)C(Cl)Cl [CHLORAMPHENICOL],12.5

# System: Staphylococcus aureus
# Assay: Antibacterial activity against methicillin-resistant Staphylococcus aureus after 24 hr by broth dilution method
# Assay type: functional
# Details: not given
row,SMILES,MIC [µg/mL]
1,O=C(N[C@H](CO)[C@H](O)c1ccc([N+](=O)[O-])cc1)C(Cl)Cl [CHLORAMPHENICOL],6.25

# System: Streptococcus pyogenes
# Assay: Antibacterial activity against Streptococcus pyogenes after 24 hr by broth dilution method
# Assay type: functional
# Details: not given
row,SMILES,MIC [µg/mL]
1,O=C(N[C@H](CO)[C@H](O)c1ccc([N+](=O)[O-])cc1)C(Cl)Cl [CHLORAMPHENICOL],12.5
2,C=CCCCCCCCCC(=O)NN1C(=O)CSC1c1ccc(Cl)cc1 (centres undefined),25

# System: Pseudomonas aeruginosa
# Assay: Antibacterial activity against Pseudomonas aeruginosa ATCC 27853 incubated for 24 hr followed by subculturing measured after 18 to 24 hr
# Assay type: functional
# Details: not given
row,SMILES,MBC [µg/mL]
1,O=C(N[C@H](CO)[C@H](O)c1ccc([N+](=O)[O-])cc1)C(Cl)Cl [CHLORAMPHENICOL],25
2,C=CCCCCCCCCC(=O)NN1C(=O)CSC1c1ccc(Cl)cc1 (centres undefined),25

# System: Trichophyton mentagrophytes
# Assay: Antifungal activity against Trichophyton mentagrophytes after 48 hr
# Assay type: functional
# Details: not given
row,MIC [µg/mL],SMILES
1,12.5,C=CCCCCCCCCC(=O)NN1C(=O)CSC1c1ccc(Cl)cc1 (centres undefined)

# System: Candida albicans
# Assay: Antifungal activity against Candida albicans incubated for 48 hr followed by subculturing measured after 48 hr
# Assay type: functional
# Details: not given
row,SMILES,MFC [µg/mL]
1,C=CCCCCCCCCC(=O)NN1C(=O)CSC1c1ccc(Cl)cc1 (centres undefined),25

# System: Streptococcus pyogenes
# Assay: Antibacterial activity against Streptococcus pyogenes incubated for 24 hr followed by subculturing measured after 18 to 24 hr
# Assay type: functional
# Details: not given
row,SMILES,MBC [µg/mL]
1,O=C(N[C@H](CO)[C@H](O)c1ccc([N+](=O)[O-])cc1)C(Cl)Cl [CHLORAMPHENICOL],12.5
2,C=CCCCCCCCCC(=O)NN1C(=O)CSC1c1ccc(Cl)cc1 (centres undefined),50

# System: Candida albicans
# Assay: Antifungal activity against Candida albicans after 48 hr
# Assay type: functional
# Details: not given
row,MIC [µg/mL],SMILES
1,12.5,C=CCCCCCCCCC(=O)NN1C(=O)CSC1c1ccc(Cl)cc1 (centres undefined)

# System: Candida albicans
# Assay: Antifungal activity against Candida albicans by disk diffusion method
# Assay type: functional
# Details: not given
row,SMILES,diameter of the inhibition zone (DIZ) [mm]
1,C=CCCCCCCCCC(=O)NN1C(=O)CSC1c1ccc(Cl)cc1 (centres undefined),27.1

# System: Aspergillus fumigatus
# Assay: Antifungal activity against Aspergillus fumigatus after 48 hr
# Assay type: functional
# Details: not given
row,MIC [µg/mL],SMILES
1,12.6,C=CCCCCCCCCC(=O)NN1C(=O)CSC1c1ccc(Cl)cc1 (centres undefined)

# System: Pseudomonas aeruginosa
# Assay: Antibacterial activity against Pseudomonas aeruginosa ATCC 27853 after 24 hr by broth dilution method
# Assay type: functional
# Details: ATCC 27853, 24 h
row,SMILES,MIC [µg/mL]
1,O=C(N[C@H](CO)[C@H](O)c1ccc([N+](=O)[O-])cc1)C(Cl)Cl [CHLORAMPHENICOL],12.5
2,C=CCCCCCCCCC(=O)NN1C(=O)CSC1c1ccc(Cl)cc1 (centres undefined),12.5

# System: Aspergillus fumigatus
# Assay: Antifungal activity against Aspergillus fumigatus incubated for 48 hr followed by subculturing measured after 48 hr
# Assay type: functional
# Details: not given
row,SMILES,MFC [µg/mL]
1,C=CCCCCCCCCC(=O)NN1C(=O)CSC1c1ccc(Cl)cc1 (centres undefined),25

# System: Pseudomonas aeruginosa
# Assay: Antibacterial activity against Pseudomonas aeruginosa ATCC 27853 after 24 hr by disk diffusion method
# Assay type: functional
# Details: not given
row,SMILES,diameter of the inhibition zone (DIZ) [mm]
1,C=CCCCCCCCCC(=O)NN1C(=O)CSC1c1ccc(Cl)cc1 (centres undefined),22.3

# System: Talaromyces marneffei
# Assay: Antifungal activity against Talaromyces marneffei by disk diffusion method
# Assay type: functional
# Details: not given
row,SMILES,diameter of the inhibition zone (DIZ) [mm]
1,C=CCCCCCCCCC(=O)NN1C(=O)CSC1c1ccc(Cl)cc1 (centres undefined),14.6

# System: Trichophyton mentagrophytes
# Assay: Antifungal activity against Trichophyton mentagrophytes incubated for 48 hr followed by subculturing measured after 48 hr
# Assay type: functional
# Details: not given
row,SMILES,MFC [µg/mL]
1,C=CCCCCCCCCC(=O)NN1C(=O)CSC1c1ccc(Cl)cc1 (centres undefined),50

# System: Talaromyces marneffei
# Assay: Antifungal activity against Talaromyces marneffei after 48 hr
# Assay type: functional
# Details: not given
row,MIC [µg/mL],SMILES
1,12.5,C=CCCCCCCCCC(=O)NN1C(=O)CSC1c1ccc(Cl)cc1 (centres undefined)

# System: Klebsiella pneumoniae
# Assay: Antibacterial activity against Klebsiella pneumoniae clinical isolate incubated for 24 hr followed by subculturing measured after 18 to 24 hr
# Assay type: functional
# Details: not given
row,SMILES,MBC [µg/mL]
1,O=C(N[C@H](CO)[C@H](O)c1ccc([N+](=O)[O-])cc1)C(Cl)Cl [CHLORAMPHENICOL],25
2,C=CCCCCCCCCC(=O)NN1C(=O)CSC1c1ccc(Cl)cc1 (centres undefined),50

# System: Escherichia coli
# Assay: Antibacterial activity against Escherichia coli ATCC 25922 after 24 hr by broth dilution method
# Assay type: functional
# Details: ATCC 25922, 24 h
row,SMILES,MIC [µg/mL]
1,O=C(N[C@H](CO)[C@H](O)c1ccc([N+](=O)[O-])cc1)C(Cl)Cl [CHLORAMPHENICOL],6.25
2,C=CCCCCCCCCC(=O)NN1C(=O)CSC1c1ccc(Cl)cc1 (centres undefined),25

# System: Escherichia coli
# Assay: Antibacterial activity against Escherichia coli ATCC 25922 at 30 uig/disk after 24 hr by disk diffusion method
# Assay type: functional
# Details: not given
row,SMILES,diameter of the inhibition zone (DIZ) [mm]
1,O=C(N[C@H](CO)[C@H](O)c1ccc([N+](=O)[O-])cc1)C(Cl)Cl [CHLORAMPHENICOL],27

# System: Trichophyton mentagrophytes
# Assay: Antifungal activity against Trichophyton mentagrophytes by disk diffusion method
# Assay type: functional
# Details: not given
row,SMILES,diameter of the inhibition zone (DIZ) [mm]
1,C=CCCCCCCCCC(=O)NN1C(=O)CSC1c1ccc(Cl)cc1 (centres undefined),19.2

# System: Klebsiella pneumoniae
# Assay: Antibacterial activity against Klebsiella pneumoniae clinical isolate at 30 ug/disk after 24 hr by disk diffusion method
# Assay type: functional
# Details: read-out: DIZ
row,SMILES,zone of inhibition at 30 µg/disc [mm]
1,O=C(N[C@H](CO)[C@H](O)c1ccc([N+](=O)[O-])cc1)C(Cl)Cl [CHLORAMPHENICOL],19

# System: Streptococcus pyogenes
# Assay: Antibacterial activity against Streptococcus pyogenes after 24 hr by disk diffusion method
# Assay type: functional
# Details: not given
row,SMILES,diameter of the inhibition zone (DIZ) [mm]
1,C=CCCCCCCCCC(=O)NN1C(=O)CSC1c1ccc(Cl)cc1 (centres undefined),20.2

# System: Talaromyces marneffei
# Assay: Antifungal activity against Talaromyces marneffei incubated for 48 hr followed by subculturing measured after 48 hr
# Assay type: functional
# Details: not given
row,SMILES,MFC [µg/mL]
1,C=CCCCCCCCCC(=O)NN1C(=O)CSC1c1ccc(Cl)cc1 (centres undefined),25
